Laboratory results taken from PubChem BioAssay AID256 (DTP/NCI, 2004).
Several values for one entry are separate records, joined by “and”; a condition that tells them apart may be missing. Equal entries are not always repeated. Toxic doses and inconclusive results are not listed. Rule for the calls: active = survival T/C of 150% or more; inactive = T/C below 125% in these data.

Test system: CD2F1 mice, L1210 leukemia ip, survival T/C
Assay: NCI In Vivo Anticancer Drug Screen. Data for tumor model L1210 Leukemia (intraperitoneal) in CD2F1 (CDF1) mice
Details: higher = longer survival
In short: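 Implant tumor; dose compound or vehicle; measure endpoint in both groups; report treated divided by control.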

[1] = endpoint: mean survival time, dose: 25.0 mg/kg/injection, schedule: Q01DX001 (ip), vehicle: saline with Tween-80
[2] = endpoint: mean survival time, dose: 50.0 mg/kg/injection, schedule: Q01DX001 (ip), vehicle: saline with Tween-80
[3] = endpoint: mean survival time, dose: 50.0 mg/kg/injection, schedule: Q01DX009 (ip), vehicle: saline with Tween-80
[4] = endpoint: mean survival time, dose: 100.0 mg/kg/injection, schedule: Q01DX009 (ip), vehicle: saline with Tween-80
[5] = endpoint: mean survival time, dose: 200.0 mg/kg/injection, schedule: Q01DX009 (ip), vehicle: saline with Tween-80
[6] = endpoint: mean survival time, dose: 100.0 mg/kg/injection, schedule: Q01DX001 (ip), vehicle: other
[7] = endpoint: mean survival time, dose: 25.0 mg/kg/injection, schedule: Q01DX009 (ip), vehicle: saline with Tween-80
[8] = endpoint: mean survival time, dose: 100.0 mg/kg/injection, schedule: Q01DX001 (ip), vehicle: saline with Tween-80
[9] = endpoint: mean survival time, dose: 200.0 mg/kg/injection, schedule: Q01DX001 (ip), vehicle: saline with Tween-80

Measured: T/C

CC#CN(CC)CC
inactive: endpoint: mean survival time, dose: 75.0 mg/kg/injection, schedule: Q01DX001 (ip), vehicle: saline 105 % of control | endpoint: mean survival time, dose: 150.0 mg/kg/injection, schedule: Q01DX001 (ip), vehicle: saline 106 % of control

C1CCC(NC2CCCCC2)CC1
inactive: [1] 104 % of control | [2] 101 % of control | endpoint: median survival time, dose: 25.0 mg/kg/injection, schedule: Q01DX009 (ip), vehicle: saline 94 % of control | endpoint: median survival time, dose: 50.0 mg/kg/injection, schedule: Q01DX009 (ip), vehicle: saline 100 % of control | endpoint: median survival time, dose: 100.0 mg/kg/injection, schedule: Q01DX009 (ip), vehicle: saline 94 % of control | endpoint: median survival time, dose: 200.0 mg/kg/injection, schedule: Q01DX009 (ip), vehicle: saline 97 % of control | endpoint: median survival time, dose: 400.0 mg/kg/injection, schedule: Q01DX009 (ip), vehicle: saline 100 % of control

S=[As]c1ccccc1 (stereo unspecified)
inactive: endpoint: mean survival time, dose: 100.0 mg/kg/injection, schedule: Q01DX001 (ip), vehicle: saline 100 % of control | endpoint: mean survival time, dose: 200.0 mg/kg/injection, schedule: Q01DX001 (ip), vehicle: saline 97 % of control | endpoint: mean survival time, dose: 400.0 mg/kg/injection, schedule: Q01DX001 (ip), vehicle: saline 107 % of control

COc1ccc(N=C=S)cc1N=C=S
inactive: endpoint: mean survival time, dose: 6.25 mg/kg/injection, schedule: Q01DX001 (ip), vehicle: saline with Tween-80 98 % of control | endpoint: mean survival time, dose: 12.5 mg/kg/injection, schedule: Q01DX001 (ip), vehicle: saline with Tween-80 97 % of control | [1] 101 % of control

COC1C(O)CC(OC2CC(Oc3cc4cc5c(c(O)c4c(O)c3C)C(=O)[C@@H](OC3CC(OC4CC(OC6CC(C)(O)C(OC(C)=O)C(C)O6)C(O)C(C)O4)C(O)C(C)O3)[C@H]([C@H](OC)C(=O)[C@@H](O)[C@@H](C)O)C5)OC(C)C2OC(C)=O)OC1C (stereo partly specified)
inactive: endpoint: mean survival time, dose: 62.5 micrograms/kg/injection, schedule: Q01DX009 (ip), vehicle: saline 120 % of control | endpoint: mean survival time, dose: 250.0 micrograms/kg/injection, schedule: Q01DX009 (ip), vehicle: saline 92 % of control

COc1cc2c(cc1OC)C1CC(=O)C(CC(C)C)CN1CC2 (stereo unspecified)
inactive: endpoint: mean survival time, dose: 100.0 mg/kg/injection, schedule: Q04DX003 (ip), vehicle: saline with Tween-80 96 % of control | endpoint: mean survival time, dose: 200.0 mg/kg/injection, schedule: Q04DX003 (ip), vehicle: saline with Tween-80 88 % of control | endpoint: mean survival time, dose: 400.0 mg/kg/injection, schedule: Q04DX003 (ip), vehicle: saline with Tween-80 100 % of control

O=C(CC1(O)C(=O)Nc2ccccc21)c1c[nH]c2ccccc12 (stereo unspecified)
inactive: [3] 95 % of control | [4] 98 % of control | [5] 91 % of control

CCOC(=O)CC1=Cc2c(OC)ccc(OC)c2CC1
inactive: endpoint: mean survival time, dose: 12.5 mg/kg/injection, schedule: Q01DX009 (ip), vehicle: other 95 % of control | endpoint: mean survival time, dose: 25.0 mg/kg/injection, schedule: Q01DX009 (ip), vehicle: other 106 % of control | endpoint: mean survival time, dose: 50.0 mg/kg/injection, schedule: Q01DX009 (ip), vehicle: other 98 % of control | endpoint: mean survival time, dose: 100.0 mg/kg/injection, schedule: Q01DX009 (ip), vehicle: other 92 % of control | endpoint: mean survival time, dose: 200.0 mg/kg/injection, schedule: Q01DX009 (ip), vehicle: other 88 % of control

CCN(CC)[S+](C)(=O)/C=C(\[O-])Nc1ccccc1 (stereo unspecified)
inactive: endpoint: mean survival time, dose: 25.0 mg/kg/injection, schedule: Q01DX001 (ip), vehicle: other 103 % of control | endpoint: mean survival time, dose: 50.0 mg/kg/injection, schedule: Q01DX001 (ip), vehicle: other 94 % of control | [6] 90 % of control

NC(=O)C(N)CCO (stereo unspecified)
inactive: endpoint: mean survival time, dose: 75.0 mg/kg/injection, schedule: Q01DX009 (ip), vehicle: saline 92 % of control | endpoint: mean survival time, dose: 75.0 mg/kg/injection, schedule: Q04DX003 (ip), vehicle: saline 97 % of control | endpoint: mean survival time, dose: 150.0 mg/kg/injection, schedule: Q01DX009 (ip), vehicle: saline 102 % of control | endpoint: mean survival time, dose: 150.0 mg/kg/injection, schedule: Q04DX003 (ip), vehicle: saline 95 % of control | endpoint: mean survival time, dose: 300.0 mg/kg/injection, schedule: Q01DX009 (ip), vehicle: saline 97 % of control | endpoint: mean survival time, dose: 300.0 mg/kg/injection, schedule: Q04DX003 (ip), vehicle: saline 95 % of control

CC(C)CCCCCc1ccc(OCCOc2ccc(C(=O)Nc3ccc(S(=O)(=O)F)cc3[N+](=O)[O-])cc2)cc1
inactive: endpoint: mean survival time, dose: 100.0 mg/kg/injection, schedule: Q01DX009 (ip), vehicle: Klucel (hydroxypropylcellulose) (HPC) 91 % of control | endpoint: mean survival time, dose: 200.0 mg/kg/injection, schedule: Q01DX009 (ip), vehicle: Klucel (hydroxypropylcellulose) (HPC) 92 % of control | endpoint: mean survival time, dose: 400.0 mg/kg/injection, schedule: Q01DX009 (ip), vehicle: Klucel (hydroxypropylcellulose) (HPC) 87 % of control

O=S(=O)(Nc1c2ccccc2c(NS(=O)(=O)c2ccccc2)c2ccccc12)c1ccccc1
inactive: endpoint: mean survival time, dose: 25.0 mg/kg/injection, schedule: Q01DX001 (ip), vehicle: saline sonified 96 % of control | endpoint: mean survival time, dose: 50.0 mg/kg/injection, schedule: Q01DX001 (ip), vehicle: saline sonified 90 % of control | endpoint: mean survival time, dose: 100.0 mg/kg/injection, schedule: Q01DX001 (ip), vehicle: saline sonified 95 % of control

CN(C)[C@@H]1C(=O)C(C(N)=O)=C(O)[C@@]2(O)C(=O)C3=C(O)c4c(O)ccc(Cl)c4[C@@](C)(O)[C@H]3C[C@@H]12
inactive: endpoint: mean survival time, dose: 12.5 mg/kg/injection, schedule: Q01DX009 (ip), vehicle: saline with Tween-80 98 % of control | endpoint: mean survival time, dose: 12.5 mg/kg/injection, schedule: Q01DX009 (ip), vehicle: saline 107 % of control | [7] 97 % of control | endpoint: mean survival time, dose: 25.0 mg/kg/injection, schedule: Q01DX009 (ip), vehicle: saline 101 % of control | [3] 93 % of control and 108 % of control | endpoint: mean survival time, dose: 50.0 mg/kg/injection, schedule: Q01DX009 (ip), vehicle: saline 103 % of control | [4] 104 % of control and 111 % of control | endpoint: mean survival time, dose: 100.0 mg/kg/injection, schedule: Q01DX009 (ip), vehicle: saline 113 % of control | [5] 102 % of control

CN1CCc2cc3c(cc2C(=O)Cc2ccc4c(c2C1)OCO4)OCO3
inactive: [7] 98 % of control | [3] 101 % of control | [4] 103 % of control

CC/C(=N/O)c1ccccc1
inactive: [4] 98 % of control | [5] 92 % of control | endpoint: mean survival time, dose: 400.0 mg/kg/injection, schedule: Q01DX009 (ip), vehicle: saline with Tween-80 103 % of control

N#CCCN(CCCN1CCOCC1)C(=S)Nc1cccc(C(F)(F)F)c1
inactive: endpoint: mean survival time, dose: 25.0 mg/kg/injection, schedule: Q04DX002 (ip), vehicle: saline with Tween-80 104 % of control | endpoint: mean survival time, dose: 50.0 mg/kg/injection, schedule: Q04DX002 (ip), vehicle: saline with Tween-80 98 % of control | endpoint: mean survival time, dose: 100.0 mg/kg/injection, schedule: Q04DX002 (ip), vehicle: saline with Tween-80 106 % of control

Cc1c(C(=O)O)nc(/C=C/C(Cl)(Cl)Cl)[nH]c1=O
inactive: endpoint: mean survival time, dose: 25.0 mg/kg/injection, schedule: Q01DX005 (ip), vehicle: other 104 % of control | endpoint: mean survival time, dose: 50.0 mg/kg/injection, schedule: Q01DX005 (ip), vehicle: other 103 % of control | endpoint: mean survival time, dose: 100.0 mg/kg/injection, schedule: Q01DX005 (ip), vehicle: other 97 % of control | endpoint: mean survival time, dose: 200.0 mg/kg/injection, schedule: Q01DX005 (ip), vehicle: other 106 % of control | endpoint: mean survival time, dose: 400.0 mg/kg/injection, schedule: Q01DX005 (ip), vehicle: other 95 % of control

Cc1cc(Cc2c(C)c(C)c(Cc3cc(C)cc(C(C)(C)C)c3O)c(C)c2C)c(O)c(C(C)(C)C)c1
inactive: endpoint: mean survival time, dose: 100.0 mg/kg/injection, schedule: Q04DX003 (ip), vehicle: saline sonified 90 % of control | endpoint: mean survival time, dose: 200.0 mg/kg/injection, schedule: Q04DX003 (ip), vehicle: saline sonified 88 % of control | endpoint: mean survival time, dose: 400.0 mg/kg/injection, schedule: Q04DX003 (ip), vehicle: saline sonified 93 % of control

OC1(c2ccccc2)CCN(C/C=C/c2ccccc2)CC1
inactive: [1] 102 % of control | [2] 101 % of control | [8] 102 % of control and 103 % of control

CCOC(=O)N/N=C/c1cc(Cl)cc(Cl)c1O
inactive: [2] 111 % of control | [8] 98 % of control | [9] 90 % of control

NC(=O)CSc1ccccc1
inactive: [6] 101 % of control | endpoint: mean survival time, dose: 200.0 mg/kg/injection, schedule: Q01DX001 (ip), vehicle: other 101 % of control | endpoint: mean survival time, dose: 400.0 mg/kg/injection, schedule: Q01DX001 (ip), vehicle: other 107 % of control

CCC(N)c1ccc2c3c(cccc13)CC2 (stereo unspecified)
inactive: [8] 89 % of control | [9] 86 % of control | endpoint: mean survival time, dose: 400.0 mg/kg/injection, schedule: Q01DX001 (ip), vehicle: saline with Tween-80 89 % of control

C1=CC(=C(C2CCC(Nc3ccccc3)CC2)C2CCC(Nc3ccccc3)CC2)C=CC1=Nc1ccccc1 (stereo unspecified)
inactive: [3] 103 % of control | [4] 101 % of control | endpoint: mean survival time, dose: 100.0 mg/kg/injection, schedule: Q04DX003 (ip), vehicle: saline 104 % of control | [5] 107 % of control | endpoint: mean survival time, dose: 200.0 mg/kg/injection, schedule: Q04DX003 (ip), vehicle: saline 104 % of control
